Assay results: paper PMC11100219, “Dual-function antimicrobial-antibiofilm peptide hybrid to tackle biofilm-forming Staphylococcus epidermidis” (Annals of Clinical Microbiology and Antimicrobials, 2024)
Residues, ends and D or L forms follow the SMILES beside them.

How the values were obtained:
[1] = test system: S. epidermidis (ATCC 35984) biofilm; test: Biofilm-formation inhibitory activity, crystal violet staining; type: cell-based, Staphylococcus epidermidis; details: CV staining, TSB, 10^6 CFU/mL, 24 h, 37°C, 0.98-250 µg/mL
Experimental: The biofilm inhibitory activity of peptide derivatives was assessed by modified crystal violet (CV) staining. Briefly, the pellet of S. epidermidis (ATCC 35984) was collected through centrifugation of bacterial suspensions grown overnight at 2,500 × g for 5 min. Subsequently, the pellet was resuspended and diluted with TSB to a final concentration of 10^6 CFU/mL. Then, 50 µL of these diluted suspensions was transferred to 96-well microplates containing same volume of peptide derivatives in 10 mM phosphate buffer saline (PBS; Caisson Labs, USA), with concentrations ranging from 0.98 to 250 µg/mL. Vancomycin was used as positive control while TSB medium without bacteria was used as negative control. After 24 h of incubation and reaching static growth at 37°C, culture media as well as planktonic cells were removed, then the biofilm in each well was washed thrice with 0.85% NaCl. For CV staining, biofilms were fixed with 95% ethanol and stained with a 0.1% (v/v) CV solution for 15 min. After removal of excess dye, each well was washed thrice with 0.85% NaCl and resuspended in 95% ethanol to dissolve bound dye. Absorbance was determined at 570 nm using a Multiskan SkyHigh microplate reader (Thermo Scientific™, Singapore). All experiments were done in six technical replicates and repeated independently three times. Minimum biofilm inhibitory concentrations at 50% and 90% (MBIC50 and MBIC90) refers to concentrations of the peptide at which the inhibition of biofilm was at least 50% and 90%, respectively.

[2] = test system: human lung fibroblast MRC-5 cell lines (ATCC CCL-171); test: MTT cytotoxicity assay; type: cell-based; details: MRC-5, 250 µg/mL (maximum concentration tested), 24 h
Experimental: The toxicity of peptide BiF2_5K7K against human lung fibroblast MRC-5 cell lines (ATCC CCL-171) was investigated by MTT colorimetric assay. Briefly, MRC-5 cells were cultured in Minimum Essential Medium [MEM; supplemented with 10% heat-inactivated FBS and 1% Penicillin-Streptomycin] in 5% CO2 at 37°C. Following an overnight incubation, MRC-5 cells were diluted to 10,000 cells/well and placed in 96-well microplates. Subsequently, they were exposed to BiF2_5K7K at 0.98 to 250 µg/mL. After incubation for 24 h, MTT solution (0.4 mg/mL) was added to each well and incubated for an additional 3 h under 5% CO2 at 37°C. The supernatant was then removed and 100 µL DMSO added, and absorbance was measured at 570 nm using a microplate reader.

**Q.** With `CC[C@H](C)[C@H](NC(=O)[C@H](CCCCN)NC(=O)[C@H](CCCCN)NC(=O)[C@@H](NC(=O)[C@H](CC(C)C)NC(=O)[C@@H](N)Cc1ccccc1)C(C)C)C(=O)N[C@@H](CCCCN)C(=O)N[C@@H](CCCCN)C(=O)N[C@H](C(=O)N[C@@H](CC(C)C)C(=O)N[C@@H](CCCNC(=N)N)C(=O)N[C@@H](CCCNC(=N)N)C(N)=O)[C@@H](C)CC` [BiF2_5K7K] (H-FLVKKIKKILRR-NH2; N-terminus assumed) as the compound, how does the MBIC50 ([1]; minimum concentration inhibiting biofilm formation more than 50%) read?
**A.** The MBIC50 was 7.81 µg/mL.

**Q.** What about the MBIC90 ([1]; minimum concentration inhibiting biofilm formation more than 90%) of the same compound?
**A.** The MBIC90 was 31.25 µg/mL.

**Q.** And the cell viability [2]?
**A.** Its cell viability is over 99%.
